Measurements taken from ChEMBL document CHEMBL5661943, “ASAP - In vitro antiviral effect” (2024).

Key:
Zika virus = experiment: Functional CPE-based assay to measure dose dependent changes in antiviral-drug inhibitory efficacy against Zika virus MR766 in Vero E6 miRFP670 cells. Cells are treated with antiviral candidates that are serially diluted. EC50 is reported via analysis of MTS assay as a readout of CPE. The assay has been performed by KU Leuven.; assay type: organism-based, Chlorocebus sabaeus, Vero C1008; details: Zika virus
dengue virus type 2 = experiment: Functional assay to measure dose dependent changes in antiviral-drug inhibitory efficacy against Dengue virus type 2 New Guinea C in Vero E6 miRFP670 cells (cotreated with P-gp inhibitor, CP100356). Cells are treated with antiviral candidates that are serially diluted, following infection, cells are fixed. EC50 is reported via analysis of fluorescence intensity using high-content imager. The …; assay type: organism-based, Chlorocebus sabaeus, Vero C1008; details: Dengue virus

SMILES	EC50 (Zika virus; Vero C1008) [µM]	EC50 (dengue virus type 2; Vero C1008) [µM]	other results
NCc1cccc(NC(=O)c2cc(Cl)cc(C3CC3)c2)c1	15.7	21.6	EC90 (Zika virus; Vero C1008, Baseline response 0 %, EC90 CI (lower) 20.759 uM, EC90 CI (upper) 27.074 uM, Hill slope 5.361, Maximum measured 91.947 %, Maximum response 100 %, Minimum measured -3.838 %, R squared 0.99): 23.7 µM; EC90 (dengue virus type 2; Vero C1008): 24.7 µM
COc1cccc(-c2ccc([C@@H](NC(=O)OCc3ccccc3)C(=O)Nc3cccc(CN)c3)cc2)c1	> 50	11.3	EC90 (Zika virus; Vero C1008, Maximum measured 5.224 %, Minimum measured -9.76 %): > 50 µM; EC90 (dengue virus type 2; Vero C1008): 13 µM
CCNC(=O)Nc1cc(Cl)cc(C(=O)Nc2cccc(CN)c2)c1	> 50	> 50	EC90 (Zika virus; Vero C1008, Baseline response 0 %, Hill slope -0.392, Maximum measured 2.06 %, Maximum response 100 %, Minimum measured -2.343 %, R squared 0.131): > 50 µM; EC90 (dengue virus type 2; Vero C1008, Maximum measured 108.516 %, Minimum measured 107.498 %, P-gp concentration 500 nM, P-gp inhibitor CP100356): > 50 µM
NCc1cccc(NC(=O)[C@H](NC(=O)OCc2ccccc2)c2ccc(Br)c(Cl)c2)c1	> 50	27.9	EC90 (Zika virus; Vero C1008, Baseline response 0 %, Hill slope 4.111, Maximum measured 16.618 %, Maximum response 100 %, Minimum measured -5.242 %, R squared 0.822): > 50 µM; EC90 (dengue virus type 2; Vero C1008, Baseline response 0 %, Hill slope -1.252, Maximum measured 107.5 %, Maximum response 100 %, Minimum measured 22.965 %, P-gp concentration 500 nM, R squared 0.543, P-gp inhibitor CP100356): > 50 µM
CC(C)(C)c1cc(Br)cc(C(=O)Nc2ccc3c(c2)CNC3)c1	> 50		EC90 (Zika virus; Vero C1008, Baseline response 0 %, Hill slope -3.526, Maximum measured 2.777 %, Maximum response 100 %, Minimum measured -2.992 %, R squared 0.044): > 50 µM
NCc1cccc(NC(=O)[C@H](NC(=O)OCc2ccccc2)C2CCC(c3ccccc3)CC2)c1 (stereo partly specified)	> 50	6.69	EC90 (Zika virus; Vero C1008, Baseline response 0 %, Hill slope 12.54, Maximum measured 11.506 %, Maximum response 100 %, Minimum measured -10.271 %, R squared 0.094): > 50 µM; EC90 (dengue virus type 2; Vero C1008, Baseline response 0 %, EC90 CI (lower) 1.121 uM, EC90 CI (upper) 23.089 uM, Hill slope -8.04, Maximum measured 108.249 %, Maximum response 100 %, Minimum measured 2.62 %, P-gp concentration 500 nM, R squared 0.836, P-gp inhibitor CP100356): 8.79 µM
Cn1ncc2c(C(=O)Nc3ccc4c(c3)CNC4)cc(Br)cc21	> 50	< 0.391	EC90 (Zika virus; Vero C1008, Baseline response 0 %, Hill slope 2.334, Maximum measured 28.881 %, Maximum response 100 %, Minimum measured -5.706 %, R squared 0.821): > 50 µM; EC90 (dengue virus type 2; Vero C1008, Baseline response 0 %, Hill slope 1.42, Maximum measured 130.593 %, Maximum response 100 %, Minimum measured 71.5 %, P-gp concentration 500 nM, R squared 0.202, P-gp inhibitor CP100356): < 0.391 µM
O=C(O)c1cc(Cl)c(F)cc1S(=O)(=O)Nc1ccc(Oc2ccccc2Cl)cc1	39.6	25.1	EC90 (Zika virus; Vero C1008, Baseline response 0 %, EC90 CI (lower) 44.524 uM, EC90 CI (upper) 54.445 uM, Hill slope 10.107, Maximum measured 91.318 %, Maximum response 100 %, Minimum measured 0.941 %, R squared 0.971): 49.2 µM; EC90 (dengue virus type 2; Vero C1008, Baseline response 0 %, Hill slope -22.82, Maximum measured 108.329 %, Maximum response 100 %, Minimum measured 0.118 %, P-gp concentration 500 nM, R squared 0.881, P-gp inhibitor CP100356): 27.7 µM
O=C(Nc1cc(Cl)cc([C@H]2[C@H](CO)[C@@H]2c2cccc(-c3nn[nH]n3)c2)c1)OCc1ccccc1	> 50		EC90 (Zika virus; Vero C1008, Baseline response 0 %, Hill slope -0.077, Maximum measured 3.793 %, Maximum response 100 %, Minimum measured 1.644 %, R squared 0.146): > 50 µM
O=C(Nc1cccc(-c2nnn[nH]2)c1)c1cc(Cl)cc2[nH]ncc12	> 50	> 50	EC90 (Zika virus; Vero C1008, Maximum measured 0.889 %, Minimum measured -1.258 %): > 50 µM; EC90 (dengue virus type 2; Vero C1008, Maximum measured 107.824 %, Minimum measured 101.456 %, P-gp concentration 500 nM, P-gp inhibitor CP100356): > 50 µM
